In ChEMBL document CHEMBL5291721, “A preclinical secondary pharmacology resource illuminates target-adverse drug reaction associations of marketed drugs” (Nat Commun, 2023) one finds AC50 data, which are given here for seven compounds.

Among the targets are Melanocortin receptor 4 (Homo sapiens, UniProt P32245); Motilin receptor (Homo sapiens, UniProt O43193); Vasopressin V2 receptor (Homo sapiens, UniProt P30518); Adenosine receptor A2a (Homo sapiens, UniProt P29274).
Assay [1] deals with T1, 5-hydroxytryptamine receptor 1A (Homo sapiens, UniProt P08908).
T1 sequence (P08908 whole entry): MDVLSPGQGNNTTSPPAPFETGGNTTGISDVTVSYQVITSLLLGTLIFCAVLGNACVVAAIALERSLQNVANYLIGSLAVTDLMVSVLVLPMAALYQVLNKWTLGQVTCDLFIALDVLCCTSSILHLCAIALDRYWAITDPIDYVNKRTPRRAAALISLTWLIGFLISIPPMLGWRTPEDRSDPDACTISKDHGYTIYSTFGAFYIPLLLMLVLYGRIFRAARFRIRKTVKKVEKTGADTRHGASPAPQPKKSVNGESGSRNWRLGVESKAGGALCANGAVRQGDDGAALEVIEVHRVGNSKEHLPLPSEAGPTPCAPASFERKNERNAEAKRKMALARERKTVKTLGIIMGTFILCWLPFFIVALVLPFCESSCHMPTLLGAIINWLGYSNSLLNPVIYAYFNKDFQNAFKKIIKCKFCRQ
The assay is classed as functional, cell-based.

For assay [2], the target named is T2, Alpha-2A adrenergic receptor (Homo sapiens, UniProt P08913).
T2 sequence (P08913 whole entry): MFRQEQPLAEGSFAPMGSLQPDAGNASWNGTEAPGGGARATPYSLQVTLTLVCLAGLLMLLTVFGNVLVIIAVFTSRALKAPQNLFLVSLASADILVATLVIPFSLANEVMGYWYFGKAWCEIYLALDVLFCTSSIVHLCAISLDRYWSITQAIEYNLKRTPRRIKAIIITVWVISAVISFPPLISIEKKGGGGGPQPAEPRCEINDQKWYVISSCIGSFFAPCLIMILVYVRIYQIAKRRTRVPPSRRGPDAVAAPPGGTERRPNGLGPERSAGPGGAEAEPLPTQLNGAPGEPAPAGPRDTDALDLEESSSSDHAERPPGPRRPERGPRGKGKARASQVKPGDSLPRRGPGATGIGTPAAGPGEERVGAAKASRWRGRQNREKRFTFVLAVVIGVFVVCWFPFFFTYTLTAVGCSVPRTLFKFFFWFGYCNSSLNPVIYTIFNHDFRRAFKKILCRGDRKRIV
It counts as functional, cell-based.

Assay [3] has as its target Kappa-type opioid receptor (Homo sapiens, UniProt P41145).
Assay [4] concerns the target T3, Equilibrative nucleoside transporter 1 (Homo sapiens, UniProt Q99808).
T3 sequence (Q99808 whole entry): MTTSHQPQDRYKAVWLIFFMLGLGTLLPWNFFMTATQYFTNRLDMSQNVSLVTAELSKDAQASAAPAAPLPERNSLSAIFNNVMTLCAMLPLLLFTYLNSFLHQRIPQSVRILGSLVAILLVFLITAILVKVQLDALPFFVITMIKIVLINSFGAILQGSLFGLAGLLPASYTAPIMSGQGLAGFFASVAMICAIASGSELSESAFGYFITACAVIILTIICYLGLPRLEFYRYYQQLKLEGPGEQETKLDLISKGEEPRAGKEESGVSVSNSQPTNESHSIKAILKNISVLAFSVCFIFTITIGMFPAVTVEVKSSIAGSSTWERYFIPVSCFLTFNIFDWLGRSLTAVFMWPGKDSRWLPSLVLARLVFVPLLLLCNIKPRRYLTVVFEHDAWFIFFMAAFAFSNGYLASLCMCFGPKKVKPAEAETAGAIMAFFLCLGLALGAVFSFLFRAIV

Assay [5] concerns the target T4, Neuropeptide Y receptor type 1 (Homo sapiens, UniProt P25929).
T4 sequence (P25929 whole entry): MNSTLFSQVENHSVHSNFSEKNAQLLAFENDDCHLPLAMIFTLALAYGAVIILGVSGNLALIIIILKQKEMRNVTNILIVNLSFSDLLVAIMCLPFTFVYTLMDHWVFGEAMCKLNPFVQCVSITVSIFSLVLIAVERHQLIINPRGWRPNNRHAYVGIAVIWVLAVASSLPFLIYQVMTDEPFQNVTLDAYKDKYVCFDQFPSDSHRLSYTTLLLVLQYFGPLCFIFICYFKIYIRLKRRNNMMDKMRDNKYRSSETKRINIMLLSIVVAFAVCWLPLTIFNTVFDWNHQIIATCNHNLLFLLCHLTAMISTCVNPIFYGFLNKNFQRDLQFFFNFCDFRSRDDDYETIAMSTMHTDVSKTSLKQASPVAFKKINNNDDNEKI

The target in assay [6] is Beta-1 adrenergic receptor (Homo sapiens, UniProt P08588). The assay is classed as functional.
In assay [7] the target is T5, Cannabinoid receptor 1 (Homo sapiens, UniProt P21554). It counts as functional, cell-based.
The target in assay [8] is Voltage-gated inwardly rectifying potassium channel KCNH2 (Homo sapiens, UniProt Q12809). It counts as functional. Particulars: read-out: AC50.
Assay [9] concerns the target Glutamate receptor ionotropic, NMDA 1 (Rattus norvegicus, UniProt P35439).
Assay [10] deals with T5, Cannabinoid receptor 1. The assay is classed as functional, cell-based. This is another data set of the same source.
The target in assay [11] is T6, Alpha-1A adrenergic receptor (Homo sapiens, UniProt P35348).
T6 sequence (P35348 whole entry): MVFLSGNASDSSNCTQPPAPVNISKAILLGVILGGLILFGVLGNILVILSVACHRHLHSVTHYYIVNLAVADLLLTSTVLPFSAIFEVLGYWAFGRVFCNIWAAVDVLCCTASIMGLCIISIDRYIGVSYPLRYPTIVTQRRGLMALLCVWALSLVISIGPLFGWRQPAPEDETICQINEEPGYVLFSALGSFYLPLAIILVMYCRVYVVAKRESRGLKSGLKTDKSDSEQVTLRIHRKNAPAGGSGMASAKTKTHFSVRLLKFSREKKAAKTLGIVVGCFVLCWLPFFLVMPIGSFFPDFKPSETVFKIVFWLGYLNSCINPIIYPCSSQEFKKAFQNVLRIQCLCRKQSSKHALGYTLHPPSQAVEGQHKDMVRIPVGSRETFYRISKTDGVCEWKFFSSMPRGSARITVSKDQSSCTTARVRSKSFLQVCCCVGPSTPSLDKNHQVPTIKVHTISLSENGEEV
The assay is classed as functional, cell-based.

Assay [12] addresses T6, Alpha-1A adrenergic receptor.
Assay [13] addresses Gamma-aminobutyric acid receptor subunit alpha-1 (Rattus norvegicus, UniProt P62813).
Further: assay procedure not described here.

Vasopressin V2 receptor, sequence (P30518 whole entry): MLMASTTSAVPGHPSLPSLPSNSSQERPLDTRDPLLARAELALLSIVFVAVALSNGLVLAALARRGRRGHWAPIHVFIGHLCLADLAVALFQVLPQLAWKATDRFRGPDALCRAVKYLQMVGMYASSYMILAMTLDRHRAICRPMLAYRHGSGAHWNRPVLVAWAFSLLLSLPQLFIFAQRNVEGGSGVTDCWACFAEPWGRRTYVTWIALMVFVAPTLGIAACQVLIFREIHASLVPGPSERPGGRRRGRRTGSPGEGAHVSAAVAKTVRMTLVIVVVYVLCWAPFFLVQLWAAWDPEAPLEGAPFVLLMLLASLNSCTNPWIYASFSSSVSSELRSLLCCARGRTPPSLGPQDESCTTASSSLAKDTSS
Beta-1 adrenergic receptor, sequence (P08588 whole entry): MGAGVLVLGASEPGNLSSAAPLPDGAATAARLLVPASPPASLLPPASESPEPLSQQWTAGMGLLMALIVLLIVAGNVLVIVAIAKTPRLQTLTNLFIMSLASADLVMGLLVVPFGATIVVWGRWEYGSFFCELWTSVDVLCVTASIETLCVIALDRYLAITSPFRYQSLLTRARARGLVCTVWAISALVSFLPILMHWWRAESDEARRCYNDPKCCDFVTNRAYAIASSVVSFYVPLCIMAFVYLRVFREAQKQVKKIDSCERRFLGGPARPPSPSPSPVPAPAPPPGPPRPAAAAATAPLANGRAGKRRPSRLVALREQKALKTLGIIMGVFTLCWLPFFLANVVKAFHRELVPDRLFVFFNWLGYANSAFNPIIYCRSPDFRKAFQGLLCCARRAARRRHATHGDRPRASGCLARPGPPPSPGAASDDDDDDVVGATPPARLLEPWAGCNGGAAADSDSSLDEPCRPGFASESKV
Kappa-type opioid receptor, sequence (P41145 whole entry): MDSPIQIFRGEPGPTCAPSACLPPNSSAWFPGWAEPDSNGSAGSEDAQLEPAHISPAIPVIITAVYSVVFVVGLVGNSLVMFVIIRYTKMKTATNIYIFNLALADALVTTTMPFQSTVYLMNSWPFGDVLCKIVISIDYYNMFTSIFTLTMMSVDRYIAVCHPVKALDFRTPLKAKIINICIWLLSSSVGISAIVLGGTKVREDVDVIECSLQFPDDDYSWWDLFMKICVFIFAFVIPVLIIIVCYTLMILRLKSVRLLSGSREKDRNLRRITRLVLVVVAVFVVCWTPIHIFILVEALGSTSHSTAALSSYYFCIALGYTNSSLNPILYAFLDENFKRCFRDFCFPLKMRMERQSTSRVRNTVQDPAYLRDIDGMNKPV
Adenosine receptor A2a, sequence (P29274 whole entry): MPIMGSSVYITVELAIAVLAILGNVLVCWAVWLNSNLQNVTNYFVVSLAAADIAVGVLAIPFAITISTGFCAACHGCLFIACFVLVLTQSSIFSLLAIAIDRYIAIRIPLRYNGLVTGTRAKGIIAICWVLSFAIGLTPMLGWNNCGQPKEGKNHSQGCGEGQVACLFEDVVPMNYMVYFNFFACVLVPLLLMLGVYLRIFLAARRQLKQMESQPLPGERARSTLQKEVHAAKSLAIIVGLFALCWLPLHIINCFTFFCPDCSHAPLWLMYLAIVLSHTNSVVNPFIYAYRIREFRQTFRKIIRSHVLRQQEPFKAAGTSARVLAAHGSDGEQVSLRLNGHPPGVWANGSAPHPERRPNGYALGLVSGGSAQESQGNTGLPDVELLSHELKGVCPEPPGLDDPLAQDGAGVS
Motilin receptor, sequence (O43193 whole entry): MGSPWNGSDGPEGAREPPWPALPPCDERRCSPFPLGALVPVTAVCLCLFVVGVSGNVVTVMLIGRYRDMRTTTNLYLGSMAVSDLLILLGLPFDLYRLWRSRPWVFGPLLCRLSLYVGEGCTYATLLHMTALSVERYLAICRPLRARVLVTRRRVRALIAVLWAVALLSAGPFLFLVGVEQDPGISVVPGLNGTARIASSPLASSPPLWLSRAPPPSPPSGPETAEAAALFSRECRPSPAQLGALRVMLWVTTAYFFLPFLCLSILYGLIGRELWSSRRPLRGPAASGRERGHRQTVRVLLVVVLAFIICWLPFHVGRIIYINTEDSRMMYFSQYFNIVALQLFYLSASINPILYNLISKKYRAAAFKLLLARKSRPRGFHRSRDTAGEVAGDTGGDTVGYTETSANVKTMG
Melanocortin receptor 4, sequence (P32245 whole entry): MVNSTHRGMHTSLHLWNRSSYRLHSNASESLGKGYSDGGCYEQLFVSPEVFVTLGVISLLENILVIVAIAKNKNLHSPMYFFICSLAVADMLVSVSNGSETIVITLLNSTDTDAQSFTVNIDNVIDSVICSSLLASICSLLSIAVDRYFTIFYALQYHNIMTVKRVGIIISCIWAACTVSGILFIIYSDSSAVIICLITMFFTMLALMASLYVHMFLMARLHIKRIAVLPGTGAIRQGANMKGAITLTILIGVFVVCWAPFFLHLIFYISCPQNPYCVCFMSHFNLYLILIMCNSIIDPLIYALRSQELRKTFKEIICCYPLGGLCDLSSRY
T5 sequence (P21554 whole entry): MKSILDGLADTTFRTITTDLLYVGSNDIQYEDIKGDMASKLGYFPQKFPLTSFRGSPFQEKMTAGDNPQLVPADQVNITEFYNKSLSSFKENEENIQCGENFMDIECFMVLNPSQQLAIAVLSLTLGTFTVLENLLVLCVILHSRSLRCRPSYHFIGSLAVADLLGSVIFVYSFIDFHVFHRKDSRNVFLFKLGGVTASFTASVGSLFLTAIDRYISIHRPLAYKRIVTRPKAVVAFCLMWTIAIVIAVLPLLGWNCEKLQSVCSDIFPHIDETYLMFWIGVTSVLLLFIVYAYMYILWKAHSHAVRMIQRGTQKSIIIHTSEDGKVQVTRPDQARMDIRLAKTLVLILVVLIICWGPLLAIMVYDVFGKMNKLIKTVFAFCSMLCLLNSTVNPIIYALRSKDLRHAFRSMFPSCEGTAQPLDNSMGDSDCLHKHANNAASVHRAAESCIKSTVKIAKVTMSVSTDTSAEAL
Voltage-gated inwardly rectifying potassium channel KCNH2, sequence (Q12809 whole entry): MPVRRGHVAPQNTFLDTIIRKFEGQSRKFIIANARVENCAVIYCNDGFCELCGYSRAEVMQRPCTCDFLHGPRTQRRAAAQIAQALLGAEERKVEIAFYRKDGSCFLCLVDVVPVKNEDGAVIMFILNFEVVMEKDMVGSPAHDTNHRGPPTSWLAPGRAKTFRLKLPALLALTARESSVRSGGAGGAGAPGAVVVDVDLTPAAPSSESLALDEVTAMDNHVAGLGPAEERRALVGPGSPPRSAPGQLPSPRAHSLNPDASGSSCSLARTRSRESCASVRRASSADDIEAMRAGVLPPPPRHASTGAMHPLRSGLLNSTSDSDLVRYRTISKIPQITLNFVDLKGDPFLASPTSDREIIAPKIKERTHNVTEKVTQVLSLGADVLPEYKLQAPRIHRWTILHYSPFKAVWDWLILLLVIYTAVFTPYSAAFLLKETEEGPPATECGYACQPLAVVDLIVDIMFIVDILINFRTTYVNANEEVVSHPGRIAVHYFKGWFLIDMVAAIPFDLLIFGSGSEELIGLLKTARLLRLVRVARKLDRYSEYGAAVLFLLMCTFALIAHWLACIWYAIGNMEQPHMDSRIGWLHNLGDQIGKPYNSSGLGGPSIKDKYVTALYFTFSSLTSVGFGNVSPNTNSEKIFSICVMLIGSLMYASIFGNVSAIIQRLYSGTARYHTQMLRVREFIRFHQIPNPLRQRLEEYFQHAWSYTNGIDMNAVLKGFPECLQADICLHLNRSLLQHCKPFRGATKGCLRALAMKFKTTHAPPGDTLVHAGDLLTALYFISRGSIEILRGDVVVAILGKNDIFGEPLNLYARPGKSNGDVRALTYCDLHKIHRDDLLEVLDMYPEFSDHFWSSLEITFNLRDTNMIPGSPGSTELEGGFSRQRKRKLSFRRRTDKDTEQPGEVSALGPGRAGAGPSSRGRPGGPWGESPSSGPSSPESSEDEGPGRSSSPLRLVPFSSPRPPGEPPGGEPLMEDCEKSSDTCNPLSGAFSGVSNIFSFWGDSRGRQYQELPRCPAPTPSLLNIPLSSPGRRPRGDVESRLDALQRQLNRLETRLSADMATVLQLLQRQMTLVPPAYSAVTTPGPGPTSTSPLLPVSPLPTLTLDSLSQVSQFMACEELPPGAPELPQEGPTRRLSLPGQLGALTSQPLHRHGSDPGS
Gamma-aminobutyric acid receptor subunit alpha-1, sequence (P62813 whole entry): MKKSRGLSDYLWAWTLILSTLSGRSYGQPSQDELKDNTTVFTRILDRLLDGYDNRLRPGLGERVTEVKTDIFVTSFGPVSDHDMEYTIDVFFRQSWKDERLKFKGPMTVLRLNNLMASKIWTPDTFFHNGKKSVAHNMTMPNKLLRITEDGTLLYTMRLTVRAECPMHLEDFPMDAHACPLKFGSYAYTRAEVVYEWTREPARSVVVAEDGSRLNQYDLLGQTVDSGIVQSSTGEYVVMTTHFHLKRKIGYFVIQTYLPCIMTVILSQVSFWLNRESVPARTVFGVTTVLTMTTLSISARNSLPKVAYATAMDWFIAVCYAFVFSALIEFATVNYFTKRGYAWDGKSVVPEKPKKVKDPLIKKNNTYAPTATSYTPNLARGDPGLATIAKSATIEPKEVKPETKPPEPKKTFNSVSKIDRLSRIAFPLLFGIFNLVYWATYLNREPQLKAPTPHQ

With `Oc1cc(O)c2c(c1)O[C@H](c1ccc(O)c(O)c1)[C@@H](O)C2` [CIANIDANOL], the AC50 (as a rule, the concentration giving half of the maximal activity seen) in assay [1] is > 10 µM; in [2], > 10 µM; on Melanocortin receptor 4, > 30 µM; in assay [3] it was > 10 µM; on Motilin receptor, > 10 µM; in [4], > 30 µM. Also, the AC50 in [5] was > 30 µM; in [6] it was > 10 µM; on Vasopressin V2 receptor, > 30 µM; on Cannabinoid receptor 1 [7], > 30 µM; in assay [8], > 30 µM; in assay [9] it was > 10 µM. The AC50 on Cannabinoid receptor 1 [10] is > 30 µM; at Adenosine receptor A2a, > 30 µM; in [11] it was > 30 µM; in assay [12], > 10 µM; in [13], > 10 µM.
For `C=C(c1ccccc1OCc1cccc(Cl)c1)n1ccnc1` [CROCONAZOLE], the AC50 in assay [1] was > 10 µM; in [2], > 10 µM; at Melanocortin receptor 4, > 30 µM; in assay [3], 1.03 µM; on Motilin receptor it was > 10 µM; in [4], > 30 µM. The half-maximal activity concentration (AC50) in [5] was > 30 µM; in assay [6], > 30 µM; at Vasopressin V2 receptor it was > 30 µM; on Cannabinoid receptor 1 [7], 15 µM; in assay [8], 4.97 µM; in [9], > 10 µM. For the same compound, the AC50 at Cannabinoid receptor 1 [10] is > 30 µM; on Adenosine receptor A2a, > 30 µM; in assay [11] it was > 30 µM; in assay [12], 9.4 µM; in [13], > 10 µM.
As to `CCN(CC)C(C)C(=O)c1ccccc1` (centres undefined) [DIETHYLPROPION], the AC50 in assay [1] is > 10 µM; in [2] it was > 10 µM; on Melanocortin receptor 4, > 30 µM; in [3] it was > 10 µM; on Motilin receptor, > 10 µM; in [4] it was > 30 µM. For the same compound, the AC50 in assay [5] was > 30 µM; in [6], > 10 µM; at Vasopressin V2 receptor, > 30 µM; at Cannabinoid receptor 1 [7], > 30 µM; in assay [8], 6.5 µM; in assay [9] it was > 10 µM. For the same compound, the AC50 was > 30 µM on Cannabinoid receptor 1 [10]; > 30 µM on Adenosine receptor A2a; > 30 µM in assay [11]; > 10 µM in assay [12]; > 10 µM in [13].
Take `Cc1ccc(-c2ncc(Cl)cc2-c2ccc(S(C)(=O)=O)cc2)cn1` [ETORICOXIB]: the half-maximal activity concentration (AC50) in assay [1] was > 10 µM; in assay [2], > 10 µM; on Melanocortin receptor 4 it was > 10 µM; in assay [3], > 10 µM; on Motilin receptor it was > 10 µM; in assay [4] it was > 30 µM. Also, the AC50 was > 10 µM in assay [5]; > 10 µM in assay [6]; > 30 µM at Vasopressin V2 receptor; > 30 µM on Cannabinoid receptor 1 [7]; > 30 µM in assay [8]; > 10 µM in [9]. In addition, the AC50 at Cannabinoid receptor 1 [10] is > 30 µM; on Adenosine receptor A2a, > 10 µM; in [11] it was > 30 µM; in [12], > 10 µM; in [13] it was > 10 µM.
Turning to `CCOC(=O)C1=C(C)NC(C)=C(C(=O)OC)C1c1cccc(Cl)c1Cl` (centres undefined) [FELODIPINE], the AC50 in [1] was > 10 µM; in assay [2], > 10 µM; at Melanocortin receptor 4, > 30 µM; in [3], 8.88 µM; on Motilin receptor, > 10 µM; in assay [4] it was 28 µM. In addition, the half-maximal activity concentration (AC50) in assay [5] is > 30 µM; in assay [6], > 10 µM; at Vasopressin V2 receptor it was > 30 µM; at Cannabinoid receptor 1 [7] it was > 30 µM; in [8] it was > 30 µM; in assay [9], > 10 µM. Also, the half-maximal activity concentration (AC50) on Cannabinoid receptor 1 [10] is > 30 µM; on Adenosine receptor A2a, > 30 µM; in assay [11], > 30 µM; in assay [12] it was 13 µM; in assay [13] it was > 10 µM.
In the case of `CN1C(=O)CN=C(c2ccccc2F)c2cc([N+](=O)[O-])ccc21` [FLUNITRAZEPAM], the AC50 was > 10 µM in assay [1]; > 10 µM in assay [2]; > 30 µM on Melanocortin receptor 4; 6.39 µM in assay [3]; > 10 µM on Motilin receptor; > 30 µM in [4]. Moreover, the concentration at half-maximal activity (AC50) in assay [5] was > 30 µM; in [6] it was > 10 µM; on Vasopressin V2 receptor, > 30 µM; on Cannabinoid receptor 1 [7], > 30 µM; in assay [8], > 30 µM; in [9] it was > 10 µM. Further, the AC50 on Cannabinoid receptor 1 [10] was > 30 µM; at Adenosine receptor A2a it was > 30 µM; in [11], > 30 µM; in assay [12] it was > 10 µM; in assay [13], > 10 µM.
`CC(=O)[C@@]1(O)CC[C@H]2[C@@H]3C[C@H](C)C4=CC(=O)C=C[C@]4(C)[C@@]3(F)[C@@H](O)C[C@@]21C` [FLUOROMETHOLONE]: the AC50 (in [1]; in assay [2]; at Melanocortin receptor 4; in assay [3]; on Motilin receptor; in [4]) was > 10 µM in each case. Besides, the half-maximal activity concentration (AC50) is > 10 µM in assay [5]; > 10 µM in assay [6]; > 10 µM at Vasopressin V2 receptor; > 30 µM at Cannabinoid receptor 1 [7]; > 30 µM in assay [8]; > 10 µM in assay [9]. Moreover, the AC50 was > 30 µM on Cannabinoid receptor 1 [10]; > 10 µM at Adenosine receptor A2a; > 30 µM in assay [11]; > 10 µM in assay [12]; > 10 µM in assay [13].
